Data reported in publication PMC8799717, “Pharmacological targeting PIKfyve and tubulin as an effective treatment strategy for double-hit lymphoma” (Cell Death Discovery, 2022).

Tests used:
Test in all cases: biochemical
Design in all cases: KINOMEscan active-site-directed competition binding panel, 468 kinases, percent of DMSO control at 1 uM
Details in all cases: KINOMEscan binding, percent of DMSO control; read-out: Ctrl%
PAK3 = PAK3 (Homo sapiens, UniProt O75914)
LIMK2 = LIMK2 (Homo sapiens, UniProt P53671)
CAMKK2 = CAMKK2 (Homo sapiens, UniProt Q96RR4)
PAK7 = molecular target: T1, PAK7 (Homo sapiens, UniProt Q9P286)
T1 construct: gene PAK5

TRKB = molecular target: T2, TRKB (Homo sapiens, UniProt Q16620)
T2 construct: gene NTRK2

RET(V804L) = RET(V804L) (Homo sapiens, UniProt P07949, V804L)
PAK2 = PAK2 (Homo sapiens, UniProt Q13177)
MRCKB = molecular target: T3, MRCKB (Homo sapiens, UniProt Q9Y5S2)
T3 construct: gene CDC42BPB

MAK = MAK (Homo sapiens, UniProt P20794)
[1] = molecular target: EGFR(L747-E749del, A750P) (Homo sapiens, UniProt P00533, A750P/DEL747-749)
EPHB2 = EPHB2 (Homo sapiens, UniProt P29323)
CLK4 = CLK4 (Homo sapiens, UniProt Q9HAZ1)
RET(V804M) = RET(V804M) (Homo sapiens, UniProt P07949, V804M)
VPS34 = molecular target: T4, VPS34 (Homo sapiens, UniProt Q8NEB9)
T4 construct: gene PIK3C3

MEK5 = molecular target: T5, MEK5 (Homo sapiens, UniProt Q13163)
T5 construct: gene MAP2K5

AMPK-alpha1 = molecular target: T6, AMPK-alpha1 (Homo sapiens, UniProt Q13131)
T6 construct: gene PRKAA1

PRKG2 = PRKG2 (Homo sapiens, UniProt Q13237)
FLT3(ITD) = FLT3(ITD) (Homo sapiens, UniProt P36888, ITD)
CDK4 = CDK4 (Homo sapiens, UniProt P11802)
NEK7 = NEK7 (Homo sapiens, UniProt Q8TDX7)
MYLK2 = MYLK2 (Homo sapiens, UniProt Q9H1R3)
PAK6 = PAK6 (Homo sapiens, UniProt Q9NQU5)
QSK = molecular target: T7, QSK (Homo sapiens, UniProt Q9Y2K2)
T7 construct: gene SIK3

STK39 = STK39 (Homo sapiens, UniProt Q9UEW8)

T4 sequence (Q8NEB9 whole entry): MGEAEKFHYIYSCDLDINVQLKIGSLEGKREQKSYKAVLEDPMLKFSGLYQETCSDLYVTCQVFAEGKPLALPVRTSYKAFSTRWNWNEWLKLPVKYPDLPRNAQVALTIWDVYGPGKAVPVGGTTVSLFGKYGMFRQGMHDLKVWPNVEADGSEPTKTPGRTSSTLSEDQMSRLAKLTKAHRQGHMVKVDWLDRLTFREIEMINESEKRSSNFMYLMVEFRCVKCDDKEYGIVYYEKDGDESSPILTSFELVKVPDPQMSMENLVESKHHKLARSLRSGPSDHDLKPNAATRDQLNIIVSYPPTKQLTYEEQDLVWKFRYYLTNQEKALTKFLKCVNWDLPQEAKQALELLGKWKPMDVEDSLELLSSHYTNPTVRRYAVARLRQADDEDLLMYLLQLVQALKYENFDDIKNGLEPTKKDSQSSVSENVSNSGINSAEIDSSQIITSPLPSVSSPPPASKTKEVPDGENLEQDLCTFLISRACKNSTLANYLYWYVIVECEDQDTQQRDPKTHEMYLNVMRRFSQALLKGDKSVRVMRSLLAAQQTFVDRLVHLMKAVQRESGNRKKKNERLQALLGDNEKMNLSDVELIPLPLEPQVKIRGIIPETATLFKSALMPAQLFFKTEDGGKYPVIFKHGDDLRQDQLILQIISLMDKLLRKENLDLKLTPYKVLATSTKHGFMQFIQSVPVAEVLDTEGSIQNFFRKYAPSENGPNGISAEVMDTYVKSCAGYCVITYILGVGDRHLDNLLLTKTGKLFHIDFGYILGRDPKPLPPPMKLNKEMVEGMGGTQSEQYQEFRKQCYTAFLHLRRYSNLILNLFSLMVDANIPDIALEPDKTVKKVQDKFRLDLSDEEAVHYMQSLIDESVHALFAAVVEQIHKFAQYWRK
T2 sequence (Q16620 whole entry): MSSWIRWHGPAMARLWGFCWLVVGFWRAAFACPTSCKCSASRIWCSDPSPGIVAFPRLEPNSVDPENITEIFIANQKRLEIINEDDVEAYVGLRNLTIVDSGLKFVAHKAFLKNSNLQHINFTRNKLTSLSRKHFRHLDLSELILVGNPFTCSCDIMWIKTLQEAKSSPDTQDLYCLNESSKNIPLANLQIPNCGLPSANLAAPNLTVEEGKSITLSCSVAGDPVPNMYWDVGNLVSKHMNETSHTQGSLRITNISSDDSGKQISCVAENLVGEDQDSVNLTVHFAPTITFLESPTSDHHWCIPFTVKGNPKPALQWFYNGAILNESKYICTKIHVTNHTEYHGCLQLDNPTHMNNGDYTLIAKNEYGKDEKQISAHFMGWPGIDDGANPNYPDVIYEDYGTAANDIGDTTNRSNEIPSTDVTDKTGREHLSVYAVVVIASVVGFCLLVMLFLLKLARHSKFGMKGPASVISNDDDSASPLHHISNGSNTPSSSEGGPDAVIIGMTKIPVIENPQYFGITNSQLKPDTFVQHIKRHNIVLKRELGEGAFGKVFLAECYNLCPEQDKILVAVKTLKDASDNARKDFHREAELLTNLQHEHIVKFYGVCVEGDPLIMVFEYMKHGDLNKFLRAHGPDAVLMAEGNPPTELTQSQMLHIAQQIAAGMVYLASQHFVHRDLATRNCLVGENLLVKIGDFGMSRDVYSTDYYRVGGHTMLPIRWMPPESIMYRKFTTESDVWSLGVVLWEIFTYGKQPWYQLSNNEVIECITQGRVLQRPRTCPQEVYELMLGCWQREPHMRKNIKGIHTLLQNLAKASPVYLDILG
Sequence of RET(V804L) (P07949 whole entry V804L): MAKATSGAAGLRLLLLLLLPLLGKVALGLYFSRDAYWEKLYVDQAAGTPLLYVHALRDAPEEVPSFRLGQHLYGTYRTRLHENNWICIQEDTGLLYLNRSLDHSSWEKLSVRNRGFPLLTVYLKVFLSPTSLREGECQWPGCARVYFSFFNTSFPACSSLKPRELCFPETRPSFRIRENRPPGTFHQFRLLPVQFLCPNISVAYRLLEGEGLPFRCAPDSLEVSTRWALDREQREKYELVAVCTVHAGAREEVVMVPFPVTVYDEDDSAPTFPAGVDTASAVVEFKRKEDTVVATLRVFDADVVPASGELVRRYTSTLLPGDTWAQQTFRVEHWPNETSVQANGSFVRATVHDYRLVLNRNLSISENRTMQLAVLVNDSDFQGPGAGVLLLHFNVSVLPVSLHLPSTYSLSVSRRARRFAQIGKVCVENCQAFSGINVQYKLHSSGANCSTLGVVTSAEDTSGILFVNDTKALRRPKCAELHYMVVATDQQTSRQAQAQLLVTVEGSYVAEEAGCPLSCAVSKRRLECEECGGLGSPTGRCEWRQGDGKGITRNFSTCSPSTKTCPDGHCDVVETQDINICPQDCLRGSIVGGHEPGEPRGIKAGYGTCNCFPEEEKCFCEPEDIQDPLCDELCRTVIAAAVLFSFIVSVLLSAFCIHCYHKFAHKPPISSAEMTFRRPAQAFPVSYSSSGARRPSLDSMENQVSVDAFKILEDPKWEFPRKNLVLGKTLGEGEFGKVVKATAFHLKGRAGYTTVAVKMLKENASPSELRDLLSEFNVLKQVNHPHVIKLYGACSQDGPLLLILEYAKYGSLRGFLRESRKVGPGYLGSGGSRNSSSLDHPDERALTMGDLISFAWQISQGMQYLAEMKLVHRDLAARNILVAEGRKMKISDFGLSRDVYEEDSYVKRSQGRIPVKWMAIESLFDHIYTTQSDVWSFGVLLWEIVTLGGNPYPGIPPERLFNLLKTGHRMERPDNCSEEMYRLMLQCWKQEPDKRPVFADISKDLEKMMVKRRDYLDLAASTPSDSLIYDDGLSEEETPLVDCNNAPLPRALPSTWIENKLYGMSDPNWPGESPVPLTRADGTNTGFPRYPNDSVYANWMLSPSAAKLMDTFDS
T7 sequence (Q9Y2K2 whole entry): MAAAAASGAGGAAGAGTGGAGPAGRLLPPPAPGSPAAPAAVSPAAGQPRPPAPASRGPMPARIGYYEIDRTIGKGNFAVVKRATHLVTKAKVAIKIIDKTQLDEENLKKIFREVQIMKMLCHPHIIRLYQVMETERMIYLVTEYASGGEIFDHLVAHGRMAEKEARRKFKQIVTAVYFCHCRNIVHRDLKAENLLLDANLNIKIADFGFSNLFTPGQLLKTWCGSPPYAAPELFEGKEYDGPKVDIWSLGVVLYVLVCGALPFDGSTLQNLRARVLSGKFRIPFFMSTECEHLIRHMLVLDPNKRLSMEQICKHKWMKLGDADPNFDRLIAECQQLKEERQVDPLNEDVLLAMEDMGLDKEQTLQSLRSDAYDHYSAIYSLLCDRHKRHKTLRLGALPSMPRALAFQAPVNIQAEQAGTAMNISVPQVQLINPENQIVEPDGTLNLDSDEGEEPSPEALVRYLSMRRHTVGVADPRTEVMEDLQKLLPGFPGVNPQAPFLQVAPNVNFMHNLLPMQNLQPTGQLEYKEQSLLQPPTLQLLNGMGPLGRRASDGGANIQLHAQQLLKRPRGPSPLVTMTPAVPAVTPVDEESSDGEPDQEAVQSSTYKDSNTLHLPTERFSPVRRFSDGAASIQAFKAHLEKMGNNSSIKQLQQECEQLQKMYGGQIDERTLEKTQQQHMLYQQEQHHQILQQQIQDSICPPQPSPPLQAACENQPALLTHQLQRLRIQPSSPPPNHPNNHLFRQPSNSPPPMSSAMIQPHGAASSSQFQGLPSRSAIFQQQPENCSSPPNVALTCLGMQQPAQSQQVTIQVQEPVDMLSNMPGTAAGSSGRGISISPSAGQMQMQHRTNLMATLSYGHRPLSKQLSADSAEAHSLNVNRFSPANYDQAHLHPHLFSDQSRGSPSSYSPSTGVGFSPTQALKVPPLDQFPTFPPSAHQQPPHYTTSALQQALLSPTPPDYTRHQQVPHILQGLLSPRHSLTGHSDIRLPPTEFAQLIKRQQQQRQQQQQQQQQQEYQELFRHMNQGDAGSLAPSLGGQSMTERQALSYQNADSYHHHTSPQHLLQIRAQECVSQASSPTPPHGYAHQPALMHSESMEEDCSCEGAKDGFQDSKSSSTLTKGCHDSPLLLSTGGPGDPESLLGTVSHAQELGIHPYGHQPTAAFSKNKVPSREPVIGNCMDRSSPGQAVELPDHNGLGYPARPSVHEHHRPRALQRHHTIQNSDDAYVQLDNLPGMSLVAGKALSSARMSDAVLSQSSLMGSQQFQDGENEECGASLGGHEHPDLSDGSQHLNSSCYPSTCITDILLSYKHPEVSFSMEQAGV
Sequence of PRKG2 (Q13237 whole entry): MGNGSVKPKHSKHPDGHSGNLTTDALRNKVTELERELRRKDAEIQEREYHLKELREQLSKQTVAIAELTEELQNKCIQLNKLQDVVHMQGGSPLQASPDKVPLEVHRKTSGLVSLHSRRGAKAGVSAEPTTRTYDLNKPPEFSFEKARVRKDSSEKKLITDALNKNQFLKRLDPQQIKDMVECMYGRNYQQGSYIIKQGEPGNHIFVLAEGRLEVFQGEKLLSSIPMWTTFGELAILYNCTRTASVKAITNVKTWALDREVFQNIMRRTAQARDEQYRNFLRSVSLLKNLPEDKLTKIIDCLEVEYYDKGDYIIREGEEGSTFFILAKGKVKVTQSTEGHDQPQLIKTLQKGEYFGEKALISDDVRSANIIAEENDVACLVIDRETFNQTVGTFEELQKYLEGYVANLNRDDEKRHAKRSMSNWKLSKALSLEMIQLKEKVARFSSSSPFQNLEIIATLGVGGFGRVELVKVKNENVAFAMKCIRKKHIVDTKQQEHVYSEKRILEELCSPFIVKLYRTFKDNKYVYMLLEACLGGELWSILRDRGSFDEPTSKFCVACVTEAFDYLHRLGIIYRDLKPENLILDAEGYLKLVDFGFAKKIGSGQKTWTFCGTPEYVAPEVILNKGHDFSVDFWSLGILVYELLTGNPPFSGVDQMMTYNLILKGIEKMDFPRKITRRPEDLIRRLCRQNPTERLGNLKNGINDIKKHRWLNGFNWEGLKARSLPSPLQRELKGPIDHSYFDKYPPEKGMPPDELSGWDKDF
Sequence of RET(V804M) (P07949 whole entry V804M): as the sequence (P07949 whole entry V804L) above, with L804M counted along it

## Cc1ccc(NC(=O)c2cccc(C(F)(F)F)c2)cc1Nc1cc(-c2cccnc2)nc2[nH]ccc12 [HZX-02-059]
PAK3
  remaining binding at 1 µM: 27%
LIMK2
  remaining binding at 1 µM: 95%
CAMKK2
  remaining binding at 1 µM: 93%
PAK7
  remaining binding at 1 µM: 65%
TRKB
  remaining binding at 1 µM: 100%
RET(V804L)
  remaining binding at 1 µM: 100%
PAK2
  remaining binding at 1 µM: 88%
MRCKB
  remaining binding at 1 µM: 100%
MAK
  remaining binding at 1 µM: 95%
[1]
  remaining binding at 1 µM: 77%
EPHB2
  remaining binding at 1 µM: 4.7%
CLK4
  remaining binding at 1 µM: 94%
RET(V804M)
  remaining binding at 1 µM: 95%
VPS34
  remaining binding at 1 µM: 79%
MEK5
  remaining binding at 1 µM: 83%
AMPK-alpha1
  remaining binding at 1 µM: 97%
PRKG2
  remaining binding at 1 µM: 89%
FLT3(ITD)
  remaining binding at 1 µM: 79%
CDK4
  remaining binding at 1 µM: 100%
NEK7
  remaining binding at 1 µM: 73%
MYLK2
  remaining binding at 1 µM: 100%
PAK6
  remaining binding at 1 µM: 100%
QSK
  remaining binding at 1 µM: 66%
STK39
  remaining binding at 1 µM: 94%
